Results: patent US20240408008A1, “AN IN-SITU GELLING ENEMA OF RIFAMYCIN FOR TREATING POUCHITIS AND DISTAL ULCERATIVE COLITIS” (COSMO TECHNOLOGIES LTD., priority 2021, published 2024)

How the values were obtained:
[1] = system: mTOR pathway; experiment: Inhibition of mTOR and S6R phosphorylation in primary colonic epithelial cells, flow cytometry; type: cell-based, human; conditions: Homo sapiens, Epithelial cell; serum stimulated primary colonic epithelial cells, 48 hr; read-out: IC50, % cells positive for anti-pmTOR and anti-pS6R relative to DMSO
Description: To evaluate Rifamycin activity on the mTOR pathway, primary colonic epithelial cells were serum starved for 24 hr and restimulated with serum for 48 hr to induce phosphorylation of mTOR and its downstream target protein […]. Serum stimulated cells were treated with Rifamycin SV, Rifaximin, the positive control Rapamycin, or the negative vehicle control DMSO. Cells were fixed, stained with antibodies against pmTOR and pS6R then analyzed by flow cytometry.

[2] = system: DSS induced colitis; experiment: Acute colitis induced by Dextran Sulfate Sodium (DSS); type: in vivo; conditions: mice, DSS 2%, PO 100 mg/Kg
Description: In situ gel enema formulation batch 7663 (same formulation as batch 7639) in vivo efficacy was tested in a murine model of acute colitis induced by Dextran Sulfate Sodium (DSS). This animal model is perhaps the most widely used mouse model of colitis and employs DSS, a chemical colitogen with anticoagulant properties, to induce disease which closely resembles human UC. DSS induced intestinal inflammation results in damage to the epithelial monolayer lining the large intestine allowing the dissemination of proinflammatory intestinal contents (e.g. bacteria and their products) into underlying tissue.
For this study, a group of mice was treated by enema with Batch 7663 (indicated as CB0125 in the figures) (dose 45 mg/kg), one group was treated by enema with Placebo Batch 7679 as a comparator for 7663; a group was treated by enema with Rifamycin powder dissolved in water (67 mg/kg). One group of mice was treated orally PO with 5-ASA at the dose of 100 mg/Kg; this group was introduced as positive control. 5-ASA is the golden standard therapy for inflammatory bowel diseases, including UC, distal UC and proctitis. One group was treated by enema with the vehicle (H2O) only, as negative control.
Briefly DSS (2%) was dissolved in water (w/v) and given to mice in place of normal drinking water. DSS water was provided ad libitum for 5 days and was changed daily. This period was followed by a washout period of 5 days with water only. Mice were weighed daily and monitored for clinical status including hunching, mobility, soft stool and/or diarrhoea. At end of the study mice were sacrificed by CO2 inhalation. Immediately after euthanasia, the animals were laparatomyzed and intestine was exteriorized. The entire colon was isolated from the caecum to the anus, placed unstretched on a ruler and then measured and weighed after rinsing the lumen with saline. The weight was normalized to the colon length by calculating the ratio.
For histological analysis of colon samples, about 2 cm of the middle portion of isolated colon was fixed in a 10% formalin. Each fixed fragment was embedded in paraffin. The slides were stained with haematoxylin and eosin and assessed according to the histological score.

| IC50 [1] [µM] | SMILES | histological score ([2]; compared to 7663) | clinical score AUC ([2]; compared to batch 7663) |
| --- | --- | --- | --- |
| 0.53 | CO[C@H]1C[C@@H]2CC[C@@H](C)[C@@](O)(O2)C(=O)C(=O)N2CCCC[C@H]2C(=O)O[C@H]([C@H](C)C[C@@H]2CC[C@@H](O)[C@H](OC)C2)CC(=O)[C@H](C)/C=C(\C)[C@@H](O)[C@@H](OC)C(=O)[C@H](C)C[C@H](C)/C=C/C=C/C=C/1C [Rapamycin] |  |  |
|  | Nc1ccc(O)c(C(=O)O)c1 [Batch 5-ASA, 5-aminosalycilic acid] | lower improvement | lower efficacy |
| 43 | CO[C@H]1/C=C/O[C@@]2(C)Oc3c(C)c(O)c4c(O)c(c5c(nc6cc(C)ccn65)c4c3C2=O)NC(=O)/C(C)=C\C=C\[C@H](C)[C@H](O)[C@@H](C)[C@@H](O)[C@@H](C)[C@H](OC(C)=O)[C@@H]1C [Rifaximin] |  |  |
